Source: the NIST ThermoML archive (doi:10.1016/j.tca.2010.05.014)

Experiment: cn = amount concentration of the nth substance listed, in mol/dm3
Conditions: 101 kPa, Liquid; for viscosity: Capillary tube (Ostwald / Ubbelohde) method; for mass density: Vibrating tube method

O=C(O)CC(O)(CC(=O)O)C(=O)O [citric acid] + O
Conditions | mass density, c1 = 0.03 [kg/m3] | mass density, c1 = 0.05 [kg/m3] | mass density, c1 = 0.07 [kg/m3] | mass density, c1 = 0.1 [kg/m3] | viscosity, c1 = 0.03 [mPa·s] | viscosity, c1 = 0.05 [mPa·s] | viscosity, c1 = 0.07 [mPa·s] | viscosity, c1 = 0.1 [mPa·s]
298.15 K | 999.5 | 1000.9 | 1002.6 | 1004.8 | 0.8766 | 0.8921 | 0.9048 | 0.9254
308.15 K | 996.3 | 997.7 | 999.3 | 1001.8 | 0.7136 | 0.7253 | 0.7595 | 0.7855
318.15 K | 992.5 | 993.8 | 995.4 | 997.9 | 0.6253 | 0.6261 | 0.6527 | 0.6766
